# In patent US6613512B1, “Apparatus and method for correcting for variable velocity in microfluidic systems” (Caliper Technologies Corp., priority 1997, dated 2003):
# How the values were obtained:
# Format in all cases: biochemical
# HCV protease = target: T1, HCV protease (Hepatitis C virus genotype 1a, UniProt P27958); conditions: Chip; 25 mM TRIS/HCL, pH 8.5, 0.1% Triton X-100, 10 mM DTT, 1M NDSB-195
# T1 construct: HCV protease was used in a similar fluorogenic assay
# Protocol: The product fluorescence is proportional to the amount of cleaved substrate. The height of the product signal is proportional to the rate of enzyme turnover for that substrate concentration. The rate of fluorescence generation can be assessed as the fluorescence signal per mixing time of substrate and enzyme in the reaction channel. That mixing time is determined by the mean residence time of the fluorescent product in the reaction channel as it is electrokinetically pumped from the source of the mixing to the detector. Km was determined from the Michaelis Menton equation.
# Due to the chemistry of this FRET quenching reaction, several considerations for accurate measurement of Km on the Labchip™ exist. (1.) There is not an accurate calibration curve for the EDANS labeled product. (2) Accurate determination of the substrate concentration in the Labchip™ reagent well by a simple spectrophotometric measurement is not performed. […]
# Note however that this well controlled background fluorescence is not the substrate only background. The extent of substrate hydrolysis over time could not be measured in the continuous flow analysis where enzyme was pumped throughout the course of the experiments. […]
# The average percent inhibition response was calculated for the first three inhibited and uninhibited signals at the start of each hour.
# LAR phosphatase [1] = target: T2, LAR phosphatase (Homo sapiens, UniProt P10586); assay: Continuous flow LAR phosphatase assay with fluorogenic substrate dFMUP on a 7A microchip
# T2 sequence (P10586 30-1907): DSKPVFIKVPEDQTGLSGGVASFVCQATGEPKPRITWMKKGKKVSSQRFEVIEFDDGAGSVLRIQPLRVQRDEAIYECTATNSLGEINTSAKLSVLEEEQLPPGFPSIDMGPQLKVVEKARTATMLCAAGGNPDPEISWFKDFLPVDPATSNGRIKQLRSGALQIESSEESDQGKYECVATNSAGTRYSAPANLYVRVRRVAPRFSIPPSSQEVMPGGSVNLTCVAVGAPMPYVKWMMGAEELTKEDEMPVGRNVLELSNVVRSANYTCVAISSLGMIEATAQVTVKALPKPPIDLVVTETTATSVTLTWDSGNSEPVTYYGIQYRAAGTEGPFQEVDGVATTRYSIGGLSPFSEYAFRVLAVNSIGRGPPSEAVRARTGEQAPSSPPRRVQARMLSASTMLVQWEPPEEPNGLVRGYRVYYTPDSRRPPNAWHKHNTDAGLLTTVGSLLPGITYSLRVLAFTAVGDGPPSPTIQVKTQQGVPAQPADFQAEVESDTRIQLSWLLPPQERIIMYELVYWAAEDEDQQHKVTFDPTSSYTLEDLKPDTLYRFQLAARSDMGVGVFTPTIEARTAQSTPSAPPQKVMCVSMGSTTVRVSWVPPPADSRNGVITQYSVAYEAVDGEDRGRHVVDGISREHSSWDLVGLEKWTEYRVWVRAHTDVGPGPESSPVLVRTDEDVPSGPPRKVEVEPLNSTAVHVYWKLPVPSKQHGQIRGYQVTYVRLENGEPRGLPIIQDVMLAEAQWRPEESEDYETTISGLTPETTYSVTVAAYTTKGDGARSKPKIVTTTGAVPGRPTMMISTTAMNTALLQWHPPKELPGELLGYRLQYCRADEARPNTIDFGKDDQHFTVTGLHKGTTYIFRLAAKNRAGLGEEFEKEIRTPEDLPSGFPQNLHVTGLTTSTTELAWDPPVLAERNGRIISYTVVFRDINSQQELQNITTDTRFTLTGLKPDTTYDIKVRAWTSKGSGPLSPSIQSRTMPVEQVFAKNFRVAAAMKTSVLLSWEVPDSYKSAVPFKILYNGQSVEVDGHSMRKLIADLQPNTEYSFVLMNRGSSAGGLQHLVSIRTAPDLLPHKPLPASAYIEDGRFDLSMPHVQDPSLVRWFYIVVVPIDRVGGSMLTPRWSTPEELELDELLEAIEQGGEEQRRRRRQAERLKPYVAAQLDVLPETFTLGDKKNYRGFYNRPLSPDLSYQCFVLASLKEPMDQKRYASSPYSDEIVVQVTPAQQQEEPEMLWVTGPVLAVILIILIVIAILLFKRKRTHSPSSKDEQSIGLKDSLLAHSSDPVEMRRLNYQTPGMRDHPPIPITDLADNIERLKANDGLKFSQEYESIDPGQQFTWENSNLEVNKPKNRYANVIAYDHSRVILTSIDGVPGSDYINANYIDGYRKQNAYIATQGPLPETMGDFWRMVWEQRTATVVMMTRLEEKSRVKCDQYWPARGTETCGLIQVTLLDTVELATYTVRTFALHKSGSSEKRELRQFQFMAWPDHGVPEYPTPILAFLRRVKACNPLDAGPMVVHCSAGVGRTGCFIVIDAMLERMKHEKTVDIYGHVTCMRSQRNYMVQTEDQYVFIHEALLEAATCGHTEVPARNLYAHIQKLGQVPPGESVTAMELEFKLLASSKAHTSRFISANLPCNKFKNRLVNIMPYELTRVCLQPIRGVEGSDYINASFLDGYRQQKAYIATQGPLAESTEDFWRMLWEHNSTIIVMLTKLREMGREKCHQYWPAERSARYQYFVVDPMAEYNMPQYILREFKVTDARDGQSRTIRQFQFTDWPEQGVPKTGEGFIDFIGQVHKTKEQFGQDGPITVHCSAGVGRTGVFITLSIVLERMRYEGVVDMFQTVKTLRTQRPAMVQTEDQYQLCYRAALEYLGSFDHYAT
# Text: In many cases, the biochemical system that is being assayed can be selected or engineered to have an easily detectable result. For example, assaying enzyme function is typically made simple by utilizing fluorogenic substrates for the enzyme, e.g., non-fluorescent substrates which yield fluorescent products. Such assays are readily incorporated into microfluidic devices for performance of assays to identify compounds that may effect normal enzyme activity. In one embodiment, using a 7A chip as described supra (see, e.g., FIG. 7), one continuously flows enzyme and fluorogenic substrate through a channel of the device. This continuous flow of enzyme and substrate produces a steady state fluorescent signal from the fluorescent product. Enzyme inhibitor (or, e.g., compounds for which one wishes to test inhibitory activity) are periodically introduced into the main channel. These inhibitors then reduce the amount of product produced within the main channel resulting in a deviation from the steady state signal. Specifically, both phosphatase assays and protease assays were performed using a 7A chip.
# The phosphatase assay utilizes a fluorogenic substrate dFMU, which produces a fluorescent signal upon dephosphorylation. The reaction is shown schematically in FIG. 12. […] In this experiment, the running buffer was 1 M NDSB-195 in 25 mM HEPES, pH 7.9. Reagent concentrations were 125 nM LAR, 50 μM dFMUP and 200 μM peptide inhibitor in wells 6, 8 and 2 respectively. Each reagent well was paired with a well containing running buffer. The system was programmed to repeatedly run a sixteen-step loop of experiments. The sixteen steps were a series of controls followed by the enzyme plus substrate experiment. Each step of the loop conserved the total current flux in the main reaction channel. The total flux remained constant during each step of the loop by maintaining a constant sum of currents from the wells. The proportion of that overall flux from each reagent and buffer well was selected to provide the desired final reagent concentration in the main reaction channel. The fluorescence response was monitored in each of the sixteen experimental steps where the continuous flow stream alternated between buffer, substrate, buffer, substrate plus enzyme at four different substrate concentrations. An example of a controller program is shown below, Table 2.
# The substrate concentration was varied for each sequence of three controls followed by the enzyme reaction. The concentrations of the reagents in the main channel can be calculated from the ratio of currents used to pump the reagents. The concentrations in the reaction channel are simply the concentration in the well multiplied by the ratio of current applied at that well, divided by the total current. Here the reaction mixture was […], and either 5, 12.5, 17 or 25 μM dFMUP. The raw fluorescence data is plotted as a function of time. […] Rise times for the enzyme/substrate signal are less than 5 seconds. The background signal remained low over the course of many experimental cycles.
# The raw data for the Km, Vmax, kcat and Ki determinations are plotted in FIG. 14. Each trace represents a set of experiments performed in seven step cycles. The enzyme solution was pumped continuously, providing a final concentration of 83 nM LAR in 1 M NDSB-195, 50 mM HEPES, pH 7.5 in the reaction channel, while the signal at various substrate concentrations was recorded. The first step of the cycle is an enzyme only control. Steps two through six contain different levels of substrate up to an including 17 μM dFMUP. The final step of the cycle is a substrate only control, 17 μM dFMUP with no enzyme. The entire experiment, (no peptide inhibitor), was repeated at two inhibitor concentrations, 35 uM and 69 uM peptide. […]
# LAR phosphatase [2] = target: T2, LAR phosphatase; assay: LAR phosphatase/dFMUP assay in a cuvette on the spectrophotometer; conditions: 1M NDSB-195/50 mM Hepes, pH 7.5, 0.1 mg/ml BSA
# Protocol: A least squares fit of the three straight lines: no inhibitor, 35 μM and 69 μM peptide, was performed with the constraint that they meet at a common intercept on the y axis, 1/Vmax FIG. 15. […] The kcat is 4.74 μmol/min nmol LAR. The parallel analysis performed on the spectrophotometer in the same running buffer yielded a kcat of 6 μmol/min nmol LAR. […] The same analysis performed in a cuvette experiment with 1 mg/ml BSA in the running buffer gave 167 μM peptide.
# In addition to the above kinetic studies, rate as a function of substrate concentration data was collected on three separate chips in order to consider interchip reproducibility for Km analyses. The combined data were used to prepare a double reciprocal plot. […] This is in excellent agreement with cuvette experiments performed on the spectrophotometer where dFMU was detected at 360 nm in a temperature controlled cuvette at 25° C.
# [3] = chip, 50 mM HEPES, pH 7.5, 10 mM DTT, 0.5 M NDSB-195
# T1 sequence (P27958 1027-1208): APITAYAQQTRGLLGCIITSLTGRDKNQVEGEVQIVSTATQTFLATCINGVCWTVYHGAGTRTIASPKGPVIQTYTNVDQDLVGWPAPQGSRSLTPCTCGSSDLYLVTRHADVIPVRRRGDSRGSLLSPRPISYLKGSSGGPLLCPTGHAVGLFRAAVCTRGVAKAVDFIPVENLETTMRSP
"kcat (LAR phosphatase [1]; Chip, 1M NDSB-195/50 mM Hepes, pH 7.5, 83 nM LAR)","Km (LAR phosphatase [1]; Chip, 1M NDSB-195/50 mM Hepes, pH 7.5, average of three chips, read-out: Km LAR/dFMUP)","Km (LAR phosphatase [1]; Chip, combined data of three separate chips, double reciprocal plot, read-out: Km)","Vmax (LAR phosphatase [1]; Chip, least squares fit of Lineweaver-Burke lines, 83 nM LAR)",Vmax (LAR phosphatase [1]; [3]),kcat (LAR phosphatase [1]; [3]),"Km (LAR phosphatase [1]; chip, 50 mM HEPES, pH 7.5, 10 mM DTT, 0.5 M NDSB-195, read-out: Km)",kcat (LAR phosphatase [2]; Cuvette (spectrophotometer)),"Km (LAR phosphatase [2]; Cuvette, 25° C, average of four determinations)",Compound,Km (HCV protease)
,,,,,,,,,C/C=C1\NC(=O)[C@H]2CSSCC/C=C/[C@H](CC(=O)N[C@H](C(C)C)C(=O)N2)OC(=O)[C@H](C(C)C)NC1=O [Depsipeptide],110 µM
4.74 μmol/min nmolLAR,18.7 µM,18.2 µM,6.71 μM dFMU/s,0.011 mM/s,3000 to 5000 min⁻¹,20 to 400 µM,6 μmol/min nmolLAR,23.2 µM,Cc1cc(=O)oc2c(F)c(OP(=O)(O)O)c(F)cc12 [dFMUP],
